# Experiments:
# B. divergens = B. divergens growth in bovine erythrocyte cultures (flow cytometry parasitemia); format: cell-based, Babesia divergens; conditions: for EC50: bovine erythrocyte cultures, 48 h, dose-response
# Description: Blood stage cultures of B. divergens (strain 2210A G2) were maintained in erythrocytes from defibrinated bovine blood (BioTrading Benelux B.V.). Parasites were multiplied in in vitro erythrocyte cultures containing RPMI 1640 medium (Lonza, cat. no. BE12-115F) supplemented with 50 μg/mL gentamicin (Lonza), 0.25 μg/mL amphotericin B (Sigma-Aldrich), and 20% (v/v) heat-inactivated fetal calf serum (Lonza, inactivation at 56 °C for 30 min before use). Cells were cultured at 37 °C in a 5% CO2 environment. B. microti (Franca) (ATTC PRA-99) was maintained by continuous intraperitoneal passages in BALB/c female mice (Charles River Laboratories). All laboratory animals were treated in accordance with the Animal Protection Law of the Czech Republic No. 246/1992 Sb., ethics approval no. 25/2018. The study was approved by the Institute of Parasitology, Biology Centre of the Czech Academy of Sciences and the Central Committee for the Animal Welfare, Czech Republic (protocol no. 1/2015).
# To evaluate the effect of inhibitors on B. divergens replication, cultures (5% hematocrit) containing 2% parasitemia were cultivated in media. Single concentration screens were first performed using 600 nM of compound and then dose–response assays (5400 to 2.34 nM) were subsequently performed for compounds of interest. Assays were performed twice in triplicate wells in a 96-well tissue culture plate format (TPP, Switzerland) and media containing inhibitors were replaced at 12 h intervals for a total of 48 h. DMSO diluted in medium (0.1%) served as a vehicle control. The parasitemia of intraerythrocytic B. divergens was determined using flow cytometry following the staining of nucleic acids as described previously.[31] Briefly, infected red blood cells were fixed in a solution of 4% paraformaldehyde and 0.025% glutaraldehyde in PBS for 30 min at room temperature (RT). […] Parasitemia was analyzed using a FACS CantoII flow cytometer and Diva software provided by BD Biosciences. The EC50 of compounds in the dose–response inhibition was determined in GraphPad Prism 10 using nonlinear regression.
# [1] = tested on: endogenous polyubiquitinated proteins in B. divergens; experiment: Western blot of polyubiquitinated proteins in treated B. divergens cultures; format: cell-based, Babesia divergens; conditions: 200 nM, 24 h, anti-Ubiquitin K48 western blot, vs 0.1% DMSO
# Description: To assess the on-target effect of proteasome inhibition, protein lysates of B. divergens isolated from bovine erythrocyte cultures were evaluated for the accumulation of polyubiquitinated proteins. The B. divergens cultures underwent two 12 h treatments (totaling 24 h) with 200 nM of the inhibitor in culture medium. Parasites were released from RBCs and protein lysates were prepared as described above. The resulting samples were then centrifuged at 15,000g for 15 min at 4 °C and protein concentrations of the resulting supernatant were determined using Bradford assay.[29] Samples were prepared for SDS-PAGE in reducing Laemmli buffer supplemented with β-mercaptoethanol. Ten micrograms of protein was applied per lane and proteins were separated on gradient (4–15%) Criterion TGX Stain-Free Precast gels (BioRad) in Tris-Glycine-SDS running buffer (25 mM Tris, 192 mM glycine, and 0.1% (w/vol) SDS, pH 8.3) and visualized using TGX stain-free chemistry (BioRad). […] After washing (3 × 10 min) in PBS-T, signals were detected using Clarity Max Western ECL substrate (BioRad), visualized using a ChemiDoc MP imager, analyzed, and adjusted using the ImageLab freeware (BioRad).
# HepG2 cells = conditions: previously reported; cited from earlier work
smiles,measurement,setting,value
CCCCCC(=O)N[C@H](C(=O)N[C@@H](CCS(C)(=O)=O)C(=O)N[C@@H](CC(C)C)C(=O)[C@@]1(C)CO1)C(C)C [carmaphycin B],Selectivity index (B. divergens over HepG2 cells),B. divergens; HepG2 EC50 / B. divergens EC50,0.21
same,EC50,B. divergens,59.5 ± 12.8 nM
same,EC50,B. divergens; listed as CPB,59.5 ± 12.8 nM
same,accumulation of endogenous polyubiquitinated proteins,[1],marked accumulation
same,EC50,HepG2 cells,12.6 ± 1.4 nM

# Source: paper PMC11561622, “Evaluating Antimalarial Proteasome Inhibitors for Efficacy in Babesia Blood Stage Cultures” (ACS Omega, 2024)
